Broadly, the solubility is the concentration that dissolves in the medium under given conditions. The term IC50 denotes the concentration that gives 50% inhibition.

We go through three compounds from patent publication US8343963B2, “Sulfamoyl-phenyl-ureido compounds and their use as medicament” (4SC AG, priority 2009, dated 2013).

≈ marks a conversion by molar mass, not a printed value. Like-named read-outs stand apart in the source and are kept apart here.

Data set [1] in a line: Solubility and solubility-range determination in 50 mM phosphate buffer at different pH. It counts as physicochemical. The conditions noted are these: aqueous buffer, kinetic from dmso stock, 1% DMSO, 23° C., read-out: Solubility or solubility range. How it is done: The compounds were dissolved in DMSO at a concentration of 20 mg/ml. These stock solutions were further diluted 1:1 with DMSO (50 μl solution+50 μl DMSO) in seven steps. Subsequently, these solutions were diluted 1:100 (5 μl DMSO-stock+495 μl 50 mM phosphate buffer) in all four pH buffers (respectively: pH=4; pH=6; pH=7.4; pH=9) resulting in a final DMSO concentration of 1% in the buffers. These dilutions were vigorously mixed and transferred into 96-well reading plate. The plates were incubated in a shaker (600 rpm) at 23° C. for 24 hours. After that, the contents of the wells were mixed with a pipette and optical density (OD) was recorded at wavelengths of 550 nm; 600 nm; 650 nm and 700 nm in the Tecan Sunrise plate reader. The cut-off OD sum for an undissolved concentration of a compound was defined as follows: Cut off OD sum=mean blank OD+0.050 OD. For the determination of the solubility range, the following rule was applied: OD>cut off=>compound not dissolved at this concentration OD<cut-off=>compound dissolved at this concentration For the determination of the solubility, a titration curve (OD/concentration) was prepared and the concentrations were determined based on the measured OD of the mixture supernatant after centrifugation. The solubility values are given in μg/ml (table 3).

A short description of data set [2]: In vitro clearance using human liver microsomes. It counts as in vitro ADME. The following applies: human liver microsomes 0.5 mg/ml, 1 μM compound, 37° C., 0-30 min. As to the method: These experiments were performed at Nikem Research (Via Zambeletti 25; Baranzate, Milan, Italy). Test compounds in duplicate at the final concentration of 1 μM were dissolved in DMSO and pre-incubated for 10 min at 37° C. in phosphate buffer pH 7.4, 3 mM MgCl2, with human liver microsomes at the final concentration of 0.5 mg/ml. After the pre-incubation period, reaction was started by adding the cofactor mixture (NADP, Glc6P, G6P-DH); samples were taken at time 0, 5, 10, 15, 20 and 30 min and added to acetonitrile to quench the metabolic reaction, centrifuged and supernatant analysed and quantified by HPLC/MS. A control sample without cofactors was always added in order to check the chemical stability of test compounds. 7-ethoxycoumarin was added as reference standard. A fixed concentration of verapamil was added in every sample as internal standard for HPLC/MS. The concentration of the remaining compound at different times was determined by HPLC/MS. The rate constant, k (min^−1) derived for the exponential decay equation (peak area vs time) was used to calculate the rate of intrinsic clearance (Cli) of the compounds using the following equations: Cli (μl/min/mg compound)=k×V; where: V (μl/mg compound)=incubation volume/mg compound added. In table 3 the clearance (in vitro metabolic stability) classification was as follows: Cli<10=compound stable; Cli between 10 and 60=low metabolism; Cli between 60 and 600=medium metabolism Cli>600=high metabolism.
Background: Liver microsomes are a subcellular fraction often used to study metabolism.

In data set [3] the test system is multiresistant Dd2 strain of Plasmodium falciparum. The experiment in a line: Antiplasmodial activity against Dd2 strain of Plasmodium falciparum ([8-3H]hypoxanthine incorporation). It counts as cell-based. The following applies: 66 h, P. falciparum Dd2, 48 h + 18 h with [8-3H]hypoxanthine, 50% parasite growth inhibition, read-out: Antiplasmodia activity (IC50 class). Put shortly:
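Dd2 parasites at 0.3% parasitaemia and 2.5% haematocrit in RPMI 1640 with 10% human serum were exposed to 0.001–100 μM compound for 48 h. [8-3H]hypoxanthine was then added for a further 18 h and incorporation counted by scintillation. IC50 was fitted as 50% growth inhibition.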

Consider `CCCCN1CCN(C(=N)c2cccc(NC(=O)Nc3ccc(S(=O)(=O)NCc4ccc(S(N)(=O)=O)cc4)cc3)c2)CC1` [Compound 34, 4-(3-(3-((4-butylpiperazin-1-yl)(imino)methyl)phenyl)ureido)-N-(4-sulfamoylbenzyl)benzenesulfonamide], for which the solubility at 24 h in data set [1] (pH 4, 50 mM phosphate buffer) turned out to be 960 µg/mL (≈ 1530 µM); in data set [1] (pH 6, 50 mM phosphate buffer), 960 µg/mL (≈ 1530 µM); in data set [1] (pH 7.4, 50 mM phosphate buffer), 750 µg/mL (≈ 1190 µM); in data set [1] (pH 9, 50 mM phosphate buffer) it was 540 µg/mL (≈ 860 µM). Also, in data set [2], the “In vitro metabolism as determined from Cli” value (“In vitro metabolism” below) was “medium (Cli between 60 and 600=medium metabolism)”. Besides, the IC50 in data set [3] is less than 0.02 µM.

In the case of `N=C(c1cccc(NC(=O)Nc2ccc(S(=O)(=O)NCc3ccc(S(N)(=O)=O)cc3)cc2)c1)N1CCNCC1` [Compound 52, 4-(3-(3-(imino(piperazin-1-yl)methyl)phenyl)ureido)-N-(4-sulfamoylbenzyl)benzenesulfonamide], the solubility at 24 h in data set [1] (pH 4, 50 mM phosphate buffer) was greater than 200 µg/mL; in data set [1] (pH 6, 50 mM phosphate buffer), greater than 200 µg/mL; in data set [1] (pH 7.4, 50 mM phosphate buffer) it was greater than 200 µg/mL; in data set [1] (pH 9, 50 mM phosphate buffer), greater than 200 µg/mL. For the same compound, the “In vitro metabolism” value in data set [2] was “low (Cli between 10 and 60=low metabolism)”. Besides, the IC50 in data set [3] fell in the range of 0.02 to 0.2 µM.

With `CCCN1CCN(C(=N)c2cccc(NC(=O)Nc3ccc(S(=O)(=O)NCc4ccc(S(N)(=O)=O)cc4)cc3)c2)CC1` [Compound 38, 4-(3-(3-(imino(4-propylpiperazin-1-yl)methyl)phenyl)ureido)-N-(4-sulfamoylbenzyl)benzenesulfonamide], the solubility at 24 h in data set [1] (pH 4, 50 mM phosphate buffer) is greater than 200 µg/mL; in data set [1] (pH 6, 50 mM phosphate buffer) it was greater than 200 µg/mL; in data set [1] (pH 7.4, 50 mM phosphate buffer), greater than 200 µg/mL; in data set [1] (pH 9, 50 mM phosphate buffer), greater than 200 µg/mL. The “In vitro metabolism” value in data set [2] is “medium (Cli between 60 and 600=medium metabolism)”. Moreover, the IC50 in data set [3] was less than 0.02 µM.
